Measured values: a melting point compilation (Tetko et al.; mined from patent text by program, amines drawn as free bases though some values may be those of a salt)

melting point | SMILES
133 to 134 °C | CC(C)Nc1ccc(C#Cc2cc(C(=O)Nc3ccc(CN4CCN(C)CC4)c(C(F)(F)F)c3)ccc2Cl)nn1
156 to 158 °C | CCOC(=O)c1nnn(-c2ccc(C3=NNC(=O)NC3C)cc2)c1C(=O)OCC (stereo not given)
174 to 178 °C | Cc1ccc2c(=O)c3cc(C(F)(F)F)ccc3sc2c1
249 to 250 °C | CC(C)n1c(C(F)(F)F)cnc1-c1ccc(O)cc1
188 to 190 °C | CCNc1nc2c(N)nc3ccccc3c2n1CC(C)C
98.5 to 99 °C | Nc1ccc(-c2scc3c2OCCO3)cc1
153 to 154 °C | CS(=O)(=O)OCCCC1Oc2cc3c(cc2NC1=O)CCCC3 (stereo not given)
97 to 99 °C | O[C@@H]1CN(Cc2ccccc2)C[C@H]1Sc1ccccc1 (relative stereo)
91 to 92 °C | CC1=Nc2ccccc2CC(c2ccsc2C)N1C (stereo not given)
63 to 65 °C | CCCCCCCCCCCCCCCCOC(=O)c1cc(C(=O)OCCCCCCCCCCCCCCCC)cc(S(=O)(=O)O)c1
210 to 211 °C | COc1ccc(-c2c(C(C)=O)c(C)nc3cc(OC)c(OC)cc23)cc1OC
110 to 111 °C | OCc1ccc2cccc(Br)c2c1
158 to 160 °C | O=C1c2ccccc2C(=O)N1OCCCN1CCN(c2ccc3ccccc3n2)CC1
206 to 209 °C | CON1CCC(C2NC(=O)C(c3c(C)cc(C)cc3C)=C2O)CC1 (stereo not given)
76 °C | CC(C)(C)OC(=O)N1CCN(C(=O)c2cccs2)CC1
152 to 154 °C | COc1cc2c(cc1F)CCC2=O
144 to 146 °C | N=C(NO)c1ccc(OCCCOc2c(Cl)cc(OCC=C(Cl)Cl)cc2Cl)cc1
110 to 112 °C | O=C(O)/C=C/C=C(c1cccc(C(F)(F)F)c1)c1cccc(C(F)(F)F)c1
216 to 218 °C | Cc1cccc(C)c1NC(=O)NC1CC(C)(C)c2ccccc2C1(C)C (stereo not given)
116 to 118 °C | CC(O)(c1ccc(F)cc1)C1CCN(CCCC(=O)c2ccc(F)cc2)CC1 (stereo not given)
83 to 86 °C | CCOC(=O)CNC(=O)N(C(=O)NCC(=O)OCC)c1ccc(C(=O)/C=C/c2cc(OC)c(OC)c(-c3cccs3)c2)cc1
109 °C | O=[N+]([O-])c1cccc(OCc2ccc3ccccc3n2)c1
138 to 139 °C | COC(=O)[C@@]1(c2ccc3ccccc3c2)CC1(c1ccccc1)c1ccccc1
190 °C | CC(C)(C)[N+]([O-])=Cc1c(O)cc(O)cc1O

melting point | SMILES
258 to 260 °C | O=c1[nH]cc(-c2ccncc2)cc1[N+](=O)[O-]
108 to 110 °C | Cc1cc(Cl)ccc1OCc1nn(C)c(=O)o1
129 to 131 °C | O=C(Oc1ccccc1)N1CC[C@@H](c2ccc(F)cc2)[C@H](CO)C1 (relative stereo)
136 to 138 °C | c1ccc2c(c1)NC(C1CCCCC1)c1cccc3c1N2CC3 (stereo not given)
122 °C | O=C1[C@H](CC[C@H](O)c2ccc(F)cc2)[C@@H](c2ccc(OS(=O)(=O)C(F)(F)F)cc2)N1c1ccc(F)cc1
155 to 156 °C | Cn1c(Nc2cc(C(F)(F)F)ccc2C(F)(F)F)nc(C(F)(F)F)cc1=O
185 °C | COc1cc2cc3c(nc2cc1OC)CCc1ccc(N)cc1-3
188 to 191 °C | CC(C(=O)O)c1ccc2nc(-c3ccc(Cl)cc3)oc2c1 (stereo not given)
279 to 280 °C | N=c1[nH]c2ccc(Cl)cc2c2ncnn12
187 to 188 °C | O=C(O)c1ccnc(-c2cccc3oc(Cc4cccc(C(F)(F)F)c4)cc23)c1
200 to 202 °C | Clc1ccc(NN=Cc2ccc(Oc3nn(Cc4ccccc4)c4ccccc34)o2)nn1
> 300 °C | CCCn1c(=O)c2nc(-c3ccc(/C=C/C(=O)OCC)cc3)[nH]c2n(CCC)c1=O
147 to 148 °C | Cc1cc(-c2ccc(Cl)cc2)nc2c(I)cnn12
178 to 179 °C | COC(=O)c1cc(C(=O)NCC(C)C)c2cc(Cc3ccc(F)cc3)cnc2c1O
215 to 216 °C | CCn1cc(C(=O)O)c(=O)c2cc(F)c(N3CCC(CNCCO)C3)c(F)c21 (stereo not given)
302 °C | C#CC(=O)N1CCN(C(=O)OC2C3=C(OCCS3)C(=O)N2c2ccc3ccc(Cl)nc3n2)CC1 (stereo not given)
187 to 188 °C | CNS(=O)(=O)c1ccccc1Nc1nc(Nc2ccc3c(c2)COC[C@@H]2CCCN32)ncc1Cl
132 to 136 °C | CC(C)(C)c1ccc(-c2ccc(-c3ccc(Br)s3)s2)cc1
79.6 to 80.5 °C | CCCCCCCCCCCCNC(=O)c1cc(Br)c(OCCNC(=O)OC)c(-c2cccc(C(F)(F)F)c2)c1
67 to 69 °C | COc1cc(N)c(Cl)cc1C(=O)NCC1CCN(CCCCCNCc2cccs2)CC1
84 °C | COc1ccc(CN(CCN(C)CCNC(=O)NCCSCc2csc(NC(=N)N)n2)c2ccccn2)cc1
167 to 169 °C | CC(=O)Oc1ccc(-c2cc(=O)c3cccnc3o2)cc1
38 to 40 °C | BrCCCCCCCCCCn1c2ccccc2c2ccccc21
181 to 183 °C | CCOCc1nc2ncc(C)nc2c(=O)[nH]1

melting point | SMILES
117 to 118 °C | Cn1nc(CNS(C)(=O)=O)nc1NCCCOc1cccc(CN2CCCCC2)c1
194 to 198 °C | CCc1nc(C)n2nc(C(=O)O)nc2c1Cc1ccc(-c2ccccc2-c2nnn[nH]2)cc1
99 to 101 °C | C[C@H](O)Cn1ccc2cc(F)c(Cl)cc21
247 to 248 °C | O=C1c2c(c(=O)n3nc(-c4ccccc4)cc3n2Cc2ccccc2)CCN1C1CCCCC1
126 °C | NCC(O)c1nn(Cc2ccccc2)c2ccccc12 (stereo not given)
127 to 129 °C | COc1ccc(C2C(N=[N+]=[N-])C(=O)N2c2ccc(C(=O)O)cc2)cc1 (stereo not given)
250 to 252 °C | Oc1ccc2nc(-c3ccc(C45CC6CC(CC(C6)C4)C5)c(O)c3)[nH]c2c1
201 to 204 °C | Cc1[nH]c2ccc(S(=O)(=O)c3cc(F)cc(F)c3)cc2c1CCNC(=O)OC(C)(C)C
105 to 108 °C | COC(=O)c1ccn(C)c1S(=O)(=O)NC(C)(C)C
193 to 196 °C | CCCc1c(OCCCCCc2c(O)c(O)c(Cl)c(Cl)c2Cl)ccc(C(=O)O)c1O
181 to 183 °C | C[C@@H](n1ncn(-c2ccc(-n3ccn(-c4ccc(OCC(F)(F)C(F)F)cc4)c3=O)cc2)c1=O)[C@](O)(Cn1cncn1)c1ccc(F)cc1F
158 to 160 °C | NC1CCN(c2cnccn2)CC1
183 to 185 °C | c1ccc2c(c1)CC(N1CCN(c3ccc4c(c3)OCCO4)CC1)C2
178 to 179 °C | CCCCC(Cn1cncn1)(NC(C)=O)c1ccc(Cl)cc1 (stereo not given)
186 to 187 °C | COc1ccc(-n2nnnc2C(F)(F)F)cc1[C@H]1CO[C@]2(CCCN(Cc3nc(=O)[nH][nH]3)[C@H]2c2ccccc2)C1
143 to 144 °C | CCOC(=O)c1nc(N)sc1C(=O)c1ccccn1
48 to 50 °C | CCCCCCCCCCCCCCCCSCC(CO)NC(=O)OC(C)(C)C (stereo not given)
244 to 246 °C | Cc1cccc(-c2c3c(cc4ccc5c(c24)OCO5)C(=O)NC3)c1
240 °C | O=C(C=Cc1cccnc1)N1CCc2c([nH]c3ccccc23)C1c1ccc2c(c1)OCO2 (stereo not given)
204 to 205 °C | CN1NN=C(c2ccc3c(c2)S(=O)(=O)c2ccccc2C3=O)N1
113 to 115 °C | N#CC1=CCCc2ccc(Br)cc21
63 to 64 °C | CC1CC(NCC(F)(F)F)=NN1c1ccc(Cl)cc1 (stereo not given)
234 to 235 °C | COc1cccc(NC(=O)NC2CN(C3CCCCC3)c3ccccc3N(CC(=O)C(C)(C)C)C2=O)c1 (stereo not given)
97 to 99 °C | CC(=O)CS(=O)(=O)CCc1ccc2c(c1)OCO2

melting point | SMILES
252 to 253 °C | COc1ccc(-c2ccc(C(=O)O)cn2)cc1
190 to 192 °C | CSc1cc(CO)cc(S(N)(=O)=O)c1Cc1ccccc1
158 to 159 °C | C[C@@H](NC(=O)[C@@H](NC(=O)OCc1ccccc1)C(Cc1ccccc1)C(=O)O)C(=O)O (stereo not given in full)
122 to 124 °C | COC(=O)c1cccc(Cc2ccc3[nH]c(-c4ccc5c(c4)OCO5)nc3c2)c1
174 to 175 °C | COc1ccc(N2CCC(=O)N(c3ccc(C)cc3)CC2)c(-c2ccc(N(C)C)cc2)n1
224 to 226 °C | CC(=O)NC[C@H]1CN(c2ccc(C(=O)c3cnc4ccc(F)cn34)cc2)C(=O)O1
50 °C | COC(=O)c1cncc(OC2SCC(OC(C)=O)C(OC(C)=O)C2OC(C)=O)c1 (stereo not given)
134 to 135 °C | Cc1ccc(S(=O)(=O)NC(Cc2ccccc2)C(=O)O)cc1 (stereo not given)
174 to 178 °C | O=[N+]([O-])c1cccc(OCCc2c[nH]cn2)c1
138 to 140 °C | N#CCCOc1ccc(OCCC#N)cc1
86 to 89 °C | COC(=O)CCC(=O)c1cc2c(cc1Cl)CC(NC(=O)OC)CC2 (stereo not given)
50 °C | CCOC(=O)C(C=O)c1ccc(Cl)cc1 (stereo not given)
79 to 80 °C | Cc1c(C)c2c(c(C)c1N)CC(C)(CN1CCC(CCCc3ccccc3)CC1)O2 (stereo not given)
68 to 82 °C | CCCN(Cc1ccc(-c2ccccc2-c2nnn[nH]2)cc1)c1nc(OCc2ccccc2)ccc1C(=O)O
111 °C | Cn1c(OC(F)F)n[nH]c1=O
211 to 213 °C | C=CCN(CC=C)c1nc(N)n2oc(=O)nc2n1
132 °C | CCN(C(=O)C(F)(F)F)c1ccc(C(=O)O)cc1
230 °C | Cc1cccc(NC(=O)c2cc(=O)[nH]c3ccc(C(=O)c4ccc(Cl)cc4)cc23)c1
244 to 246 °C | CCOc1nc2ccccc2n(-c2ccc(Cl)cc2)c1=O
212 °C | Cc1nc(Cl)c2c(-c3ccc([N+](=O)[O-])o3)nn(C)c2n1
73 °C | CC(=O)OCCCc1c(C)[nH]c(C(=O)OC(C)(C)C)c1C
143 to 144 °C | CC(C)Cn1c(CO)c(-c2ccc(F)cc2)c2cc(OCc3ccccc3)ccc2c1=O
68 °C | CCOC(=O)c1c(-c2ccccc2)nc2ccccn12

SMILES | melting point
CN1CCN(c2cc3c(Br)cccc3c(=O)[nH]2)CC1 | 240 to 241 °C
CC1(O)CC=C2C3CCC4=CC(=O)CCC4C3C(c3ccc(-c4ccoc4)cc3)CC21C (stereo not given) | 198 to 199 °C
COC(=O)P(=O)(OC)OC | 150 °C
CCCCN(CCCC)Cc1nc(-c2ncn3c2[C@@H]2CCN2C(=O)c2c(Cl)cccc2-3)no1 | 120 to 125 °C
Cc1c(F)c(N2CCNC(C)C2)cc2c1C(=O)CCN2C1CC1 (stereo not given) | 98 to 100 °C
